Results reported in patent publication US20180346502A1, “Processes for the Preparation of SGLT-2 Inhibitors, Intermediates Thereof” (Emmennar Pharma Private Limited, priority 2017, published 2018).

Experiment: Storage stability of amorphous empagliflozin at 5±3°C (HPLC chemical purity, PXRD)
Assay type: physicochemical
Details: for Chemical Purity (HPLC) / PXRD: Temp = 5 ± 3° C.
Protocol: • (a) (1S)-1,5-anhydro-1-C-[4-chloro-3-[[4-[[(3S)-tetrahydro-3-furanyl]oxy]phenyl]methyl]phenyl]-D-glucitol, i.e., empagliflozin (amorphous) • Apparatus: A liquid chromatographic system is to be equipped with variable • wavelength UV-Detector and Integrator. • Column: Promosil C18, 250×4.6 mm, 100 A°, 5 μm or equivalent • Column Temperature: 40° C. • Wavelength: 225 nm • Flow rate: 1.2 mL/min • Injection volume: 5 μL • Run Time: 60 min • Elution: Gradient • Diluent: Acetonitrile: Water (50:50 v/v) • Mobile phase A: Buffer solution • Mobile phase B: Acetonitrile: Water (95:5 v/v) • Buffer solution: Transfer accurately about 1 mL of ortho phosphoric acid into 1000 mL of milli-Q water, filter through 0.45 μm nylon membrane and sonicate to degas. • (b) Amorphous solid dispersion of empagliflozin and ethyl cellulose (EC) • Chromatographic conditions are same as given under (a). • (c) Amorphous solid dispersion of empagliflozin and hydroxypropyl cellulose (HPC) • Chromatographic conditions are same as given under (a), except for: • Wavelength: 220 nm • Column temperature: 35° C. • Mobile Phase B: Acetonitrile: Water (90:10 v/v) • (d) (1S)-1,5-anhydro-1-C-[4-chloro-3-[(4-ethoxyphenyl)methyl] phenyl]-D-glucitol i.e., dapagliflozin • Chromatographic conditions are same as given under (a), except for: • Column temperature: 35° C. • Run Time: 55 min • Mobile Phase B: Acetonitrile: Water (90:10 v/v)
The diffraction patterns were measured using Bruker D2 PHASER diffractometer equipped with LYNXEYE™ detector, used radiation Cu Kα (λ=1.54060 Å), excitation voltage: 30 kV, anode current: 10 mA, measured range: 3-40° 2θ, increment: 0.01° 2θ.

Chemical Purity (HPLC) (Stability period 1 month): 99.90 | PXRD (Stability period 1 month): Amorphous | Chemical Purity (HPLC) (Stability period 3 months): 99.88 | PXRD (Stability period 3 months): Amorphous | Chemical Purity (HPLC) (Stability period 6 months): 99.89 | PXRD (Stability period 6 months): Amorphous | Chemical Purity (HPLC) (Stability period 12 months): 99.88 | PXRD (Stability period 12 months): Amorphous | Chemical Purity (HPLC) (Stability period Initial): 99.88 | PXRD (Stability period Initial): Amorphous | stable on storage (period) (storage at 5±3° C.): 12 months
SMILES: OC[C@H]1O[C@@H](c2ccc(Cl)c(Cc3ccc(O[C@H]4CCOC4)cc3)c2)[C@H](O)[C@@H](O)[C@@H]1O [Empagliflozin, (1S)-1,5-anhydro-1-C-[4-chloro-3-[[4-[[(3S)-tetrahydro-3-furanyl]oxy]phenyl]methyl]phenyl]-D-glucitol]
